This is an account of results in patent publication US5965539A, “Inhibitors of prenyl transferases” (Univeristy of Pittsburgh, priority 1996, dated 1999).

Usually IC50 stands for the concentration at which inhibition is half-maximal.

The target in experiment [1] is T1, FTase (Homo sapiens, UniProt P49356).
T1 construct: FTase and GGTase I activities from 60,000×g supernatants of human Burkitt lymphoma (Daudi) cells; endogenous in cells; host or cells: human Burkitt lymphoma (Daudi) cells, 60,000xg supernatant (partially purified)
Briefly: FTase activity assay: transfer of [3H]farnesyl from FPP to recombinant H-Ras-CVLS, Daudi 60,000xg supernatant. The experiment is classed as biochemical. As to conditions: Table 1.

Experiment [2] deals with H-RasF transformed NIH 3T3 cells. As to conditions: 50 mg/kg once daily. How it is done: A. Antitumor efficacy was carried out as described in FIG. 3 except that animals were randomly assigned to four groups each of 4 mice each (2 tumors per mouse). […] B. Ras processing was carried out 5 hours after the last treatement on day 17. Tumors were extracted from the animals, tissumized, and lysed in lysis buffer as described in FIG. 1. Lysates (25 μg) were electrophoresed on a 12.5% SDS-PAGE and immunoblotted with anti-Ras antibody Y13-238 as described previously. The blots were then reprobed with anti-Rap1A antibody (Santa Cruze Biotechnologies, Santa Cruz, Calif.).
The tumor sizes at the end of 17 days were 2490 mm^3 for saline, 1793 mm^3 for 10 mg/kg, 1226 mm^3 for 50 mg/kg and 624 mm^3 for 100 mg/kg treated animals. […] Tumors from control animals contained only fully processed Ras which migrates faster in SDS-PAGE gels (FIG. 11B). […] Thus, the extent of tumor growth inhibition correlated with the extent of inhibition of Ras processing.

Experiment [3] has as its target T2, GGTase I (Homo sapiens, UniProt P53609).
T2 construct: FTase and GGTase I activities from 60,000×g supernatants of human Burkitt lymphoma (Daudi) cells; endogenous in cells; host or cells: human Burkitt lymphoma (Daudi) cells, 60,000xg supernatant (partially purified)
The experiment is described as follows: GGTase I activity assay: transfer of [3H]geranylgeranyl to recombinant H-Ras-CVLL, Daudi 60,000xg supernatant. The experiment is classed as biochemical. As to conditions: Table 1; read-out: GGTase I IC50.

T1 sequence (P49356 whole entry): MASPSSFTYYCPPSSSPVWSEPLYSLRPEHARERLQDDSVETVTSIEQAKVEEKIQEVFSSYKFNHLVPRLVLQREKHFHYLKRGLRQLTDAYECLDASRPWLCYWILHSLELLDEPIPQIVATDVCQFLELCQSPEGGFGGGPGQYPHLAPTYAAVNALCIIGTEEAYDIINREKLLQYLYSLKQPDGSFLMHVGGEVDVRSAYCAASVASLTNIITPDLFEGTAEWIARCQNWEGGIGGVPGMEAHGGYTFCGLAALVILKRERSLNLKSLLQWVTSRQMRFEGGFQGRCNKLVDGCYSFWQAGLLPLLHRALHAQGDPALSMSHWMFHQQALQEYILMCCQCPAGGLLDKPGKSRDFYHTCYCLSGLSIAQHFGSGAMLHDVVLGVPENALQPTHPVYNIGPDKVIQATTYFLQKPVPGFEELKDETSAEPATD
T2 sequence (P53609 whole entry): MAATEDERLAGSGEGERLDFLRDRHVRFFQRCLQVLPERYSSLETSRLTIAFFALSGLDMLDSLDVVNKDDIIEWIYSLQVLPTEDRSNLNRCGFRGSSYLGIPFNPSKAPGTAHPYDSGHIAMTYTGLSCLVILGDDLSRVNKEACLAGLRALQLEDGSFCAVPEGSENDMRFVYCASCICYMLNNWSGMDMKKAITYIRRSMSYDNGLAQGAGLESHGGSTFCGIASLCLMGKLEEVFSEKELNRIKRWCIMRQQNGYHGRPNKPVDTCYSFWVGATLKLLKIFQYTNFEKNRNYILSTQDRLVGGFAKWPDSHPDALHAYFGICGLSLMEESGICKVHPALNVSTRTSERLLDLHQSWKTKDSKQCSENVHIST

Consider `COC(=O)[C@H](CCSC)NC(=O)c1ccc(NC[C@@H](N)CS)cc1-c1ccccc1` [FTI-277, 4-N-[2(R)-Amino-3-mercaptopropyl]amino-2-phenylbenzoyl methionine methyl ester], for which the GG/F in experiment [1] (ratio GGTase I IC50 / FTase IC50) is on record as 32. The half-inhibitory concentration (IC50) in experiment [1] (read-out: FTase IC50) was determined as 50 nM; in experiment [3] it was 1600 nM. In addition, the “tumor growth of H-RasF transformed NIH 3T3 cells” value in experiment [2] is on record as “inhibited tumor growth”.
